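In this assay, cells in 96-well plates receive the compound at five concentrations for 48 hours. Endpoints are linearly interpolated between the surrounding concentrations. Abbreviation: GI50, concentration required for 50% inhibition of growth.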 Calls of active or inactive are those of the source. No stated cut-off is given here; in the data, active = GI50 up to about 1.1 µM and inactive = higher.
Assays:
Assay in all cases: growth of human tumour cells (NCI), 48 h
786-0 = test system: 786-0
A498 = test system: A498
ACHN = test system: ACHN
COLO 205 = test system: COLO 205
DMS-114 = test system: DMS-114
HT-29 = test system: HT-29
KM12 = test system: KM12
NCI-H226 = test system: NCI-H226
OVCAR-4 = test system: OVCAR-4
SF-268 = test system: SF-268
SK-MEL-28 = test system: SK-MEL-28
SN12C = test system: SN12C
SR = test system: SR
U-251 = test system: U-251
UACC-62 = test system: UACC-62
DU-145 = test system: DU-145
Hs-578T = test system: Hs-578T
MDA-MB-231 = test system: MDA-MB-231
MDA-MB-435 = test system: MDA-MB-435
MDA-N = test system: MDA-N

| SMILES | GI50 (786-0) | GI50 (A498) | GI50 (ACHN) | GI50 (COLO 205) | GI50 (DMS-114) | GI50 (HT-29) | GI50 (KM12) | GI50 (NCI-H226) | GI50 (OVCAR-4) | GI50 (SF-268) | GI50 (SK-MEL-28) | GI50 (SN12C) | GI50 (SR) | GI50 (U-251) | GI50 (UACC-62) | GI50 (DU-145) | GI50 (Hs-578T) | GI50 (MDA-MB-231) | GI50 (MDA-MB-435) | GI50 (MDA-N) |
| --- | --- | --- | --- | --- | --- | --- | --- | --- | --- | --- | --- | --- | --- | --- | --- | --- | --- | --- | --- | --- |
| CC(/C=C/C(=O)c1sc(-n2nc(-c3ccccc3)cc2-c2ccccc2)nc1C)=C\c1ccccc1 | 96.4 µM (inactive) | > 10 µM (inactive) | 25.6 µM (inactive) | > 10 µM (inactive) | 16.9 µM (inactive) | > 10 µM (inactive) | 23.8 µM (inactive) | > 10 µM (inactive) | 7.43 µM (inactive) | 72.9 µM (inactive) | > 10 µM (inactive) | 40.3 µM (inactive) | 27.2 µM (inactive) | 65.2 µM (inactive) | 40.5 µM (inactive) |  |  |  |  |  |
| COc1cc([C@@H]2c3cc4c(cc3[C@@H](OC3OC5COC(C)OC5C(O)C3O)[C@H]3COC(=O)[C@H]23)OCO4)cc(OC)c1O (stereo partly specified) |  | 7.14 µM (inactive) |  | 40.3 µM (inactive) | 5.57 µM (inactive) | 28.8 µM (inactive) | 18.6 µM (inactive) | 3.44 µM (inactive) | 113 µM (inactive) | 7.6 µM (inactive) | 22.1 µM (inactive) | 5.2 µM (inactive) |  | 3.3 µM (inactive) | 6.11 µM (inactive) | 849 nM (active) | 0.735 µM (active) | 1.7 µM (inactive) | 28.2 µM (inactive) | 0.968 µM (active) |
| O=C(CC1OC(O)C(Cl)=C1Cl)c1cccnc1 (stereo unspecified) | > 41.5 µM (inactive) | > 100 µM (inactive) | > 31.6 µM (inactive) | > 100 µM (inactive) | > 41.1 µM (inactive) | > 42.3 µM (inactive) | > 100 µM (inactive) | > 100 µM (inactive) | > 100 µM (inactive) | > 68.4 µM (inactive) | > 42.7 µM (inactive) | > 100 µM (inactive) | > 100 µM (inactive) | > 41.2 µM (inactive) | > 100 µM (inactive) |  |  |  |  |  |
| CCCCCCCCCCCCCCCC(=O)OCC(C[As](=O)(O)O)OC(=O)CCCCCCCCCCCCCCC (stereo unspecified) | > 84.5 µM (inactive) | > 100 µM (inactive) | > 71.6 µM (inactive) | > 100 µM (inactive) | 70.6 µM (inactive) | > 100 µM (inactive) | > 100 µM (inactive) | > 74.8 µM (inactive) | > 100 µM (inactive) | 68.9 µM (inactive) | > 100 µM (inactive) | > 74.5 µM (inactive) | > 100 µM (inactive) | > 65.6 µM (inactive) | > 100 µM (inactive) |  | 58.5 µM (inactive) | > 100 µM (inactive) | > 100 µM (inactive) | > 100 µM (inactive) |
| CC1(c2cccc(C3CCC4(C=CC3=O)OCCO4)c2)OCCO1 (stereo unspecified) | 4.62 µM (inactive) | 16.9 µM (inactive) | 4.91 µM (inactive) | 6.14 µM (inactive) | 1.8 µM (inactive) | 11.8 µM (inactive) | 17.4 µM (inactive) | 25.9 µM (inactive) | 7.28 µM (inactive) | 17.3 µM (inactive) | 16 µM (inactive) | 14.5 µM (inactive) | 3.12 µM (inactive) | 18.1 µM (inactive) | 6.52 µM (inactive) | 17900 nM (inactive) | 15.3 µM (inactive) | 13.2 µM (inactive) | 13.4 µM (inactive) | 10.3 µM (inactive) |
| CCN(CC)c1ccc2c(c1)Nc1cc(=C(C#N)C#N)c3ccccc3c1=N2 | > 100 µM (inactive) | > 100 µM (inactive) | > 100 µM (inactive) | > 100 µM (inactive) | > 100 µM (inactive) | > 100 µM (inactive) | > 100 µM (inactive) | > 100 µM (inactive) | > 100 µM (inactive) | > 100 µM (inactive) | > 100 µM (inactive) | > 100 µM (inactive) | > 100 µM (inactive) | > 100 µM (inactive) | > 100 µM (inactive) |  |  |  |  |  |
| CC1OC(OC2CC(O)(C(=O)CO)Cc3c(O)c4c(c(O)c32)C(=O)c2ccccc2C4=O)CC(N)C1O (stereo unspecified) | < 0.01 µM (active) | < 0.01 µM (active) | < 0.01 µM (active) | < 0.017 µM (active) | < 0.01 µM (active) | < 0.0135 µM (active) | 0.0168 µM (active) | < 0.01 µM (active) | 0.0813 µM (active) | < 0.0163 µM (active) | 0.0573 µM (active) | < 0.0112 µM (active) | < 0.01 µM (active) | < 0.01 µM (active) | 0.0101 µM (active) | 10.1 nM (active) | 0.0206 µM (active) | 0.431 µM (active) | 0.156 µM (active) | 0.0652 µM (active) |
| CN(C(=O)C12C3(C(=O)C(C)(C)C)C4C5(C#N)C3C1(C(=O)C(C)(C)C)C5C42C(=O)C(C)(C)C)C(C)(C)C (stereo unspecified) | > 50 µM (inactive) | > 50 µM (inactive) | 25.2 µM (inactive) | > 50 µM (inactive) | 17.7 µM (inactive) | > 50 µM (inactive) | > 50 µM (inactive) | > 50 µM (inactive) | 31.6 µM (inactive) | 32.5 µM (inactive) | > 50 µM (inactive) | > 50 µM (inactive) | 43.8 µM (inactive) | > 50 µM (inactive) | 48.8 µM (inactive) |  |  |  |  |  |
| COc1ccc(/C=N/NS(=O)(=O)c2ccccc2)cc1 | > 100 µM (inactive) | > 100 µM (inactive) | > 100 µM (inactive) | > 100 µM (inactive) | 63.1 µM (inactive) | > 100 µM (inactive) | > 100 µM (inactive) | > 100 µM (inactive) | > 100 µM (inactive) | > 100 µM (inactive) | > 100 µM (inactive) | > 100 µM (inactive) | > 100 µM (inactive) | > 100 µM (inactive) | > 100 µM (inactive) |  |  |  |  |  |
